According to publication PMC7466280 (Cell, 2020):
Read-outs that look alike come from different tables or passages of the source.

Key:
NTSR1 [1] = target: T1, NTSR1 (Homo sapiens, UniProt P30989); assay: Phosphorylated ERK detection by western blot; assay type: cell-based
C57BL/6J mice [2] = assay: Contact righting test; assay type: in vivo, mouse; conditions: PD149163 i.p. 120 min, SBI-553 i.p. (up to 30 mg/kg) 30 min prior to testing
DAT KO mice = assay: L-DOPA-induced restoration of locomotion in dopamine depleted DAT KO mice; assay type: in vivo, mouse; conditions: 12 mg/kg i.p., AMPT dopamine-depleted DAT KO mice
C57BL/6J mice [3] = assay: Intravenous cocaine self-administration; assay type: in vivo, mouse
C57BL/6J mice [4] = assay: Oral SBI-553 modulation of PD149163-induced hypothermia and hypoactivity; assay type: in vivo, mouse; conditions: SBI-553 10, 30, 100 mg/kg p.o. 30 min prior to PD149163 i.p.
β-arrestin2 KO mice = assay type: in vivo, mouse; conditions: 12 mg/kg i.p.; for cocaine-induced hyperlocomotion: cocaine 30 mg/kg i.p.
NTSR1 [5] = target: T1, NTSR1; assay: IP3 BRET assay; assay type: cell-based; conditions: for effect on NTS-induced IP3 production: in combination with NTS; for IP3 generation: ligand alone, SBI-553 10 μM, SR142948A 10 μM
C57BL/6J mice [6] = assay: Blood pressure measurement; assay type: in vivo, mouse; conditions: SBI-553 12 mg/kg i.p.; PD149163 0.3 mg/kg i.p.; 60 minutes post-treatment
NTSR1 [7] = target: T1, NTSR1; assay: Gq protein activation by TGFα shedding assay; assay type: cell-based; conditions: for effect on NTS-induced Gq activation: in combination with NTS; for Gq activation: ligand alone
NTSR1 [8] = target: T1, NTSR1; assay: Confocal β-arrestin2 translocation assay in U2OS cells; assay type: cell-based; conditions: for β-arrestin2 translocation: NTSR1-expressing U2OS cells, ligand alone
NTSR1 [9] = target: T1, NTSR1; assay: Apo-aequorin calcium assay; assay type: cell-based; conditions: for effect on NTS-induced Ca2+ mobilization: in combination with NTS (10 nM); for Ca2+ mobilization: ligand alone
C57BL/6J mice [10] = assay: Stimulant-induced hyperlocomotion in the open field; assay type: in vivo, mouse; conditions: 12 mg/kg i.p.
NTSR1 [11] = target: T1, NTSR1; assay: BRET β-arrestin2 recruitment assay in HEK293T cells; assay type: cell-based
NTSR1 [12] = target: T1, NTSR1; assay: NTSR1 internalization assay; assay type: cell-based
C57BL/6J mice [13] = assay: Methamphetamine conditioned place preference; conditions: 12 mg/kg i.p. 15 min prior to test
C57BL/6J mice [14] = assay: Core body temperature measurement; assay type: in vivo, mouse; conditions: PD149163 0.1 – 1 mg/kg i.p.; SBI-553 2–30 mg/kg i.p.
NTSR1 [15] = target: T1, NTSR1; assay: Phosphorylated NTSR1 detection by western blot; assay type: cell-based; conditions: NTSR1-expressing HEK293T cells; NTS 10 nM, SBI-553 10 μM, SR142948A 10 μM
C57BL/6J mice [16] = assay: Horizontal wire test; assay type: in vivo, mouse; conditions: PD149163 i.p. 120 min, SBI-553 i.p. (up to 30 mg/kg) 30 min prior to testing
NTSR1 [17] = target: T1, NTSR1; assay: Radioligand binding to NTSR1-containing HEK293T cell membranes
[18] = HEK293T cells expressing human NTSR1, SBI-553 10 μM, SR142948A 10 μM
[19] = 12 mg/kg i.p., cocaine 0.1 mg/kg/infusion
[20] = low-concentration NTS, maximal levels not altered
[21] = [3H]NTS saturation binding with SBI-553 0.01 – 10 μM

T1 sequence (P30989 whole entry): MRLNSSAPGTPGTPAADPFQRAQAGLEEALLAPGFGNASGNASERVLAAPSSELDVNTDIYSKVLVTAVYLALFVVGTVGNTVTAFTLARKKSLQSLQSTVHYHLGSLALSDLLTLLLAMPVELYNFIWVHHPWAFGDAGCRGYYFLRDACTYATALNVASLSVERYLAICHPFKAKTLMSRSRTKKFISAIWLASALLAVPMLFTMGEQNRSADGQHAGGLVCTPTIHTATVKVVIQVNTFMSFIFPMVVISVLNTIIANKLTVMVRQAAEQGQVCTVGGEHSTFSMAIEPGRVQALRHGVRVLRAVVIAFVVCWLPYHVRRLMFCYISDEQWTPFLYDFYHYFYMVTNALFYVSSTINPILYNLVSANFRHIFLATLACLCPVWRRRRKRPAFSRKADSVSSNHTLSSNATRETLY

## COc1ccccc1C1CCN(c2nc(C3(F)CC3)nc3ccc(N(C)CCO)cc23)CC1 [SBI-553]
NTSR1 [1]; HEK293T cells expressing human NTSR1, ligand alone, NTS 10 nM, SBI-553 10 μM
  pERK generation: failed to elicit pERK generation
NTSR1 [1]; [18]
  effect of pretreatment on NTS-induced pERK: blunted the early sharp peak in pERK
NTSR1 [1]; HEK293 cells lacking the Gq/11 protein (Gq-null)
  NTS-induced pERK, NTS alone vs NTS in combination with SBI-553: comparable pERK time courses
NTSR1 [1]; β-arrestin1/2-null HEK293 cells
  effect of pretreatment on NTS-induced pERK: blocked in its entirety
C57BL/6J mice [2]
  righting reflex: failed to influence
DAT KO mice
  L-DOPA-induced restoration of locomotion: attenuated
C57BL/6J mice [3]; 12 mg/kg i.p., 3-day test
  lever discrimination (percent responses at active and inactive levers): lever discrimination was unchanged
C57BL/6J mice [3]; [19]
  activity at the inactive lever: unchanged across treatments
  cocaine intake, level of the vehicle control: less than 20%
  latency to initiate lever responding: increased the latency to initiate lever responding
  percent of lever responses during the post-reinforcement cue period: reduced the percent of lever responses that occurred during the post-reinforcement cue period
C57BL/6J mice [3]; 12 mg/kg i.p., cocaine 0.1 mg/kg/infusion, FR4, 60 min session
  cumulative self-administered cocaine reinforcements: fewer cumulative self-administered reinforcements between 20 and 60 min
C57BL/6J mice [3]; 12 mg/kg i.p., cocaine 0.1 mg/kg/infusion, relative to Vehicle and No Treatment
  total and active lever responses: significantly suppressed total and active lever responses
C57BL/6J mice [3]; SBI-553 2, 6, 12 mg/kg i.p., cocaine 1 mg/kg/infusion
  cocaine self-administration at the highest cocaine dose: No change in self-administration
C57BL/6J mice [3]; SBI-553 2, 6, 12 mg/kg i.p., cocaine 0.1-1 mg/kg/infusion
  lever accuracy: not altered by SBI-553 treatment
C57BL/6J mice [3]; SBI-553 6, 12 mg/kg, cocaine 0.1, 0.3, 0.5 mg/kg/infusion
  cocaine self-administration dose-response: greater efficacy at lower cocaine infusion doses
C57BL/6J mice [4]
  PD149163-induced reduction in core body temperature: dose-dependently attenuated
  PD149163-induced reduction in horizontal activity in the open field: dose-dependently attenuated
β-arrestin2 KO mice; A2aR-Cre animals (deletion in striatal D2R-expressing neurons)
  methamphetamine-induced hyperlocomotion: no SBI-553 effects were observed
β-arrestin2 KO mice; D1RCre animals (β-arrestin2 deletion in D1R-expressing neurons)
  methamphetamine-induced hyperlocomotion: effectively reduced
β-arrestin2 KO mice; D2R-Cre mice (β-arrestin2 deletion in D2R-expressing neurons)
  methamphetamine-induced hyperlocomotion: failed to affect locomotion
β-arrestin2 KO mice; DAT-Cre mice (deletion in midbrain D2R-expressing neurons)
  methamphetamine-induced hyperlocomotion: reduced the methamphetamine-induced hyperlocomotion
β-arrestin2 KO mice; WT mice on C57BL/6J background
  cocaine-induced hyperlocomotion: decrease
β-arrestin2 KO mice; WT mice on C57BL/6J background, methamphetamine 2 mg/kg i.p.
  methamphetamine-induced hyperlocomotion: decrease
β-arrestin2 KO mice; global β-arrestin2 knockout mice
  cocaine-induced hyperlocomotion: a significant reduction in locomotion was absent
β-arrestin2 KO mice; global β-arrestin2 knockout mice, methamphetamine 2 mg/kg i.p.
  methamphetamine-induced hyperlocomotion: a significant reduction in locomotion was absent
β-arrestin2 KO mice; β-arrestin2 f/f Cre negative littermate controls
  methamphetamine-induced hyperlocomotion: effectively reduced
NTSR1 [5]
  effect on NTS-induced IP3 production: attenuated
  IP3 generation: neither SBI-553 nor SR142948A stimulated
C57BL/6J mice [6]
  peak systolic pressure vs vehicle: no differences
NTSR1 [7]
  effect on NTS-induced Gq activation: attenuated
  Gq activation: neither SBI-553 nor the antagonist SR142948A had any effect
NTSR1 [8]; NTS 200 nM, SBI-553 7.5 μM, 40 min
  β-arrestin2 translocation in U2OS cells lacking NTSR1: Neither NTS nor SBI-553 treatment stimulated β-arrestin2 translocation
NTSR1 [8]
  β-arrestin2 translocation: stimulated β-arrestin2 translocation to the plasma membrane
NTSR1 [8]; [20]
  effect of pretreatment on NTS-induced β-arrestin2 translocation: enhanced
NTSR1 [9]
  effect on NTS-induced Ca2+ mobilization: attenuated
  Ca2+ mobilization: neither SBI-553 nor SR142948A stimulated
C57BL/6J mice [10]
  locomotor response vs vehicle in non-stimulant exposed animals: comparable
C57BL/6J mice [10]; cocaine 30 mg/kg i.p.
  cocaine-induced hyperlocomotion: attenuate cocaine-induced hyperlocomotion
C57BL/6J mice [10]; methamphetamine 2 mg/kg
  methamphetamine-induced hyperlocomotion: reduced
NTSR1 [11]; ligand alone
  β-arrestin2 recruitment to NTSR1: stimulated β-arrestin2 recruitment
NTSR1 [11]; low-concentration NTS
  effect of pretreatment on NTS-induced β-arrestin2 recruitment to NTSR1: enhanced
NTSR1 [12]; ligand alone
  NTSR1 internalization: stimulated NTSR1 internalization
NTSR1 [12]; [20]
  effect of pretreatment on NTS-induced NTSR1 internalization: enhanced
C57BL/6J mice [13]
  expression of methamphetamine conditioned place preference: blocked the expression of methamphetamine conditioned place preference
C57BL/6J mice [14]
  core body temperature: no effect on core body temperature
NTSR1 [15]
  NTSR1 phosphorylation (phosphothreonine blot): resulted in NTSR1 phosphorylation
C57BL/6J mice [16]
  wire-hang test, latency to grasp the wire: failed to influence
NTSR1 [17]; 5 nM [3H]NTS, 10 μM unlabeled ligand
  effect on total [3H]NTS binding: increased total [^3H]NTS binding
NTSR1 [17]; [21]
  increase of NTS affinity for NTSR1 (Kd): up to 3.9 fold
  increase of number of available [3H]NTS binding sites (Bmax): up to 3.3 fold

## COc1cccc(OC)c1-c1cc(C(=O)NC2(C(=O)O)C3CC4CC(C3)CC2C4)nn1-c1ccc(C(=O)N(C)CCCN(C)C)cc1C(C)C (stereo not drawn) [SR142948A, reference compound]
NTSR1 [1]; [18]
  effect of pretreatment on NTS-induced pERK: abolished
NTSR1 [5]
  effect on NTS-induced IP3 production: attenuated
  IP3 generation: neither SBI-553 nor SR142948A stimulated
NTSR1 [7]
  effect on NTS-induced Gq activation: attenuated
  Gq activation: neither SBI-553 nor the antagonist SR142948A had any effect
NTSR1 [8]; NTS 5 nM or SBI-553 10 μM
  block of NTS- and SBI-553-induced β-arrestin2 translocation: antagonized NTS-induced, but not SBI-553-induced
NTSR1 [8]
  β-arrestin2 translocation: without effect
NTSR1 [9]
  effect on NTS-induced Ca2+ mobilization: attenuated
  Ca2+ mobilization: neither SBI-553 nor SR142948A stimulated
NTSR1 [11]
  block of NTS- and SBI-553-induced β-arrestin2 recruitment to NTSR1: antagonized NTS-induced, but not SBI-553-induced
NTSR1 [12]; NTS 10 nM or SBI-553 10 μM
  block of NTS- and SBI-553-induced NTSR1 internalization: antagonized NTS-induced, but not SBI-553-induced
NTSR1 [17]; 100 nM [3H]SBI-553, 10 μM unlabeled competitor, YOx beads
  displacement of [3H]SBI-553 from NTSR1: not displaced
